≈ marks a conversion by molar mass, not a printed value.
What was measured:
[1] = test system: E. coli K-12 R-5; test: Minimum inhibition concentration (MIC), agar double dilution method; assay type: cell-based, Escherichia coli; settings: Mueller hinton agar
Method: (§1) Test 1; Minimum Inhibition Concentration (MIC)
(§2) MIC was measured, based on the standard method of Japan Society of Chemotherapy, on a BHI agar medium (Brain heart-infusion agar, made by Difco Laboratories Inc.(USA)) with respect to Pasteurella and on a Mueller hinton agar medium (Mueller hinton agar, made by Difco, Laboratories Inc.(USA)) with respect to the other test bacteria in both cases according to the double dilution method.

[2] = test system: Past. multocida BOPO305 M-17; test: as above; assay type: cell-based, Pasteurella multocida; settings: Past. multocida BOPO305 M-17, strain from a sheep; BHI agar
Method: as §1, §2

[3] = test system: Past. multocida BSPO302 No. 6; test: as above; assay type: cell-based, Pasteurella multocida; settings: Past. multocida BSPO302 No. 6, strain from a pig; BHI agar
Method: as §1, §2

[4] = test system: S. aureus Smith (virulent strain); test: microbe, parasite or virus in culture; assay type: cell-based, Staphylococcus aureus; settings: S. aureus Smith (virulent strain); Mueller hinton agar
Method: as §1, §2

[5] = test system: S. aureus FDA209P; test: Minimum inhibition concentration (MIC), agar double dilution method; assay type: cell-based, Staphylococcus aureus; settings: Mueller hinton agar
Method: as §1, §2

[6] = test system: Serratia marcescens; test: as above; assay type: cell-based; settings: Mueller hinton agar
Method: as §1, §2

[7] = test system: Proteus vulgaris OX19; test: as above; assay type: cell-based; settings: Mueller hinton agar
Method: as §1, §2

[8] = test system: Pasteurella haemolytica BBPO101 N791; test: as above; assay type: cell-based; settings: Pasteurella haemolytica BBPO101 N791, strain from cattle; BHI agar
Method: as §1, §2

[9] = test system: Salmonella enteritidis 1891; test: as above; assay type: cell-based; settings: Mueller hinton agar
Method: as §1, §2

[10] = test system: Enterobacter aerogenes ATCC13048; test: as above; assay type: cell-based; settings: Mueller hinton agar
Method: as §1, §2

[11] = test system: Klebsiella pneumoniae PCI602; test: as above; assay type: cell-based; settings: Mueller hinton agar
Method: as §1, §2

[12] = test system: Staphylococcus aureus 193; test: as above; assay type: cell-based; settings: Mueller hinton agar
Method: as §1, §2

[13] = test system: Escherichia coli NIHJ; test: as above; assay type: cell-based; settings: Mueller hinton agar
Method: as §1, §2

[14] = test system: Micrococcus luteus PCI1001; test: as above; assay type: cell-based; settings: Mueller hinton agar
Method: as §1, §2

[15] = test system: Shigella dysenteriae JS11910; test: as above; assay type: cell-based; settings: Shigella dysenteriae JS11910; Mueller hinton agar
Method: as §1, §2

[16] = test system: Past haemolytica BAPO103 S801; test: as above; assay type: cell-based, Pasteurella haemolytica; settings: Past haemolytica BAPO103 S801, strain from poultry; BHI agar
Method: as §1, §2

[17] = test system: Past haemolytica BBPO102 N811; test: as above; assay type: cell-based, Pasteurella haemolytica; settings: Past haemolytica BBPO102 N811, strain from cattle; BHI agar
Method: as §1, §2

[18] = test system: Bacillus subtilis NRRL B-558; test: as above; assay type: cell-based; settings: Bacillus subtilis NRRL B-558; Mueller hinton agar
Method: as §1, §2

[19] = test system: ICR mice; test: Toxicity test, intravenous or subcutaneous injection; assay type: in vivo
[20] = intravenous injection, 0.25 mg/mouse
[21] = intravenous injection, 0.5 mg/mouse
[22] = intravenous injection, 1.5 mg/mouse
[23] = intravenous injection, 2.0 mg/mouse
[24] = subcutaneous injection, 1.0 mg/mouse
[25] = subcutaneous injection, 2.0 mg/mouse
[26] = subcutaneous injection, 3.0 mg/mouse
[27] = subcutaneous injection, 4.0 mg/mouse

| SMILES | MIC [1] [µg/mL] | MIC [2] [µg/mL] | MIC [3] [µg/mL] | MIC [4] [µg/mL] | MIC [5] [µg/mL] | MIC [6] [µg/mL] | MIC [7] [µg/mL] | MIC [8] [µg/mL] | MIC [9] [µg/mL] | MIC [10] [µg/mL] | MIC [11] [µg/mL] | MIC [12] [µg/mL] | MIC [13] [µg/mL] | MIC [14] [µg/mL] | MIC [15] [µg/mL] | MIC [16] [µg/mL] | MIC [17] [µg/mL] | MIC [18] [µg/mL] | further results |
| --- | --- | --- | --- | --- | --- | --- | --- | --- | --- | --- | --- | --- | --- | --- | --- | --- | --- | --- | --- |
| CC[C@H]1OC(=O)C[C@@H](O)[C@H](C)[C@@H](O[C@@H]2O[C@H](C)C(O)C(N(C)C)C2O)[C@@H](CCN2CC(C)CC(C)C2)C[C@@H](C)C(=O)/C=C/C(C)=C/[C@@H]1CN1CC(C)CC(C)C1 (stereo partly drawn) [DMP-MT] | >100 | 0.39 (≈ 0.494 µM) | 0.78 (≈ 0.987 µM) | 6.25 (≈ 7.91 µM) | 1.56 (≈ 1.97 µM) | 100 (≈ 127 µM) | 25 (≈ 31.6 µM) | 0.39 (≈ 0.494 µM) | 3.13 (≈ 3.96 µM) | 25 (≈ 31.6 µM) | 6.25 (≈ 7.91 µM) | 3.13 (≈ 3.96 µM) | 6.25 (≈ 7.91 µM) | 1.56 (≈ 1.97 µM) | 12.5 (≈ 15.8 µM) | 1.56 (≈ 1.97 µM) | 0.39 (≈ 0.494 µM) | – | – |
| CC[C@H]1OC(=O)C[C@@H](O)[C@H](C)[C@@H](O[C@@H]2O[C@H](C)C(O)C(N(C)C)C2O)[C@@H](CCN(Cc2ccccc2)Cc2ccccc2)C[C@@H](C)C(=O)/C=C/C(C)=C/[C@@H]1CN(Cc1ccccc1)Cc1ccccc1 (stereo partly drawn) [Compound C-5] | >100 | >100 | >100 | 50 (≈ 52.2 µM) | 12.5 (≈ 13 µM) | 100 (≈ 104 µM) | >100 | 50 (≈ 52.2 µM) | >100 | >100 | >100 | 12.5 (≈ 13 µM) | >100 | 6.25 (≈ 6.52 µM) | >100 | >100 | 50 (≈ 52.2 µM) | 50 (≈ 52.2 µM) | – |
| CC[C@H]1OC(=O)C[C@@H](O)[C@H](C)[C@@H](O[C@@H]2O[C@H](C)C(O)C(N(C)C)C2O)[C@@H](CCN2CCCC2)C[C@@H](C)C(=O)/C=C/C(C)=C/[C@@H]1CN1CCCC1 (stereo partly drawn) [Compound C-6] | >100 | 3.13 (≈ 4.43 µM) | 6.25 (≈ 8.85 µM) | 25 (≈ 35.4 µM) | – | 100 (≈ 142 µM) | – | 1.56 (≈ 2.21 µM) | 3.13 (≈ 4.43 µM) | 50 (≈ 70.8 µM) | – | 25 (≈ 35.4 µM) | 6.25 (≈ 8.85 µM) | 1.56 (≈ 2.21 µM) | 12.5 (≈ 17.7 µM) | 25 (≈ 35.4 µM) | 1.56 (≈ 2.21 µM) | 50 (≈ 70.8 µM) | – |
| CC[C@H]1OC(=O)C[C@@H](O)[C@H](C)[C@@H](O[C@@H]2O[C@H](C)C(O)C(N(C)C)C2O)[C@@H](CCN(C)Cc2ccccc2)C[C@@H](C)C(=O)/C=C/C(C)=C/[C@@H]1CN(C)Cc1ccccc1 (stereo partly drawn) [Compound C-4] | >100 | 0.76 (≈ 0.943 µM) | 1.56 (≈ 1.94 µM) | 6.25 (≈ 7.75 µM) | 0.39 (≈ 0.484 µM) | 100 (≈ 124 µM) | 12.5 (≈ 15.5 µM) | 0.39 (≈ 0.484 µM) | 1.56 (≈ 1.94 µM) | 12.5 (≈ 15.5 µM) | 6.25 (≈ 7.75 µM) | 0.39 (≈ 0.484 µM) | 6.25 (≈ 7.75 µM) | 0.20 (≈ 0.248 µM) | 3.13 (≈ 3.88 µM) | 6.25 (≈ 7.75 µM) | 0.39 (≈ 0.484 µM) | – | – |
| CC[C@H]1OC(=O)C[C@@H](O)[C@H](C)[C@@H](O[C@@H]2O[C@H](C)C(O)C(N(C)C)C2O)[C@@H](CCN2CCCCCC2)C[C@@H](C)C(=O)/C=C/C(C)=C/[C@@H]1CN1CCCCCC1 (stereo partly drawn) [Compound C-7] | 25 (≈ 32.8 µM) | 0.10 (≈ 0.131 µM) | 0.39 (≈ 0.512 µM) | 3.13 (≈ 4.11 µM) | – | 12.5 (≈ 16.4 µM) | 3.13 (≈ 4.11 µM) | 0.20 (≈ 0.262 µM) | 0.78 (≈ 1.02 µM) | 3.13 (≈ 4.11 µM) | 0.78 (≈ 1.02 µM) | – | – | 0.20 (≈ 0.262 µM) | 1.56 (≈ 2.05 µM) | – | 0.20 (≈ 0.262 µM) | 6.25 (≈ 8.2 µM) | Dissection finding [19, 20]: no abnormal finding; Surviving number [19, 20]: 2/2; Dissection finding [19, 21]: no abnormal finding; Surviving number [19, 21]: 1/2 (immediate death); Dissection finding [19, 22]: no abnormal finding; Surviving number [19, 22]: 0/2 (immediate death); Dissection finding [19, 23]: no abnormal finding; Surviving number [19, 23]: 0/2 (immediate death); Dissection finding [19, 24]: no abnormal finding; Surviving number / number of used animals [19, 24]: 2/2; Dissection finding [19, 25]: no abnormal finding; Surviving number / number of used animals [19, 25]: 2/2; Dissection finding [19, 26]: a little decoloring in kidney; Surviving number / number of used animals [19, 26]: 2/2; Dissection finding [19, 27]: no abnormal finding; Surviving number / number of used animals [19, 27]: 0/1 (died after 30 minutes) |
| CC[C@H]1OC(=O)C[C@@H](O)[C@H](C)[C@@H](O[C@@H]2O[C@H](C)C(O)C(N(C)C)C2O)[C@@H](CCN(C)C2CCCCC2)C[C@@H](C)C(=O)/C=C/C(C)=C/[C@@H]1CN(C)C1CCCCC1 (stereo partly drawn) [Compound C-3] | – | 1.56 (≈ 1.97 µM) | 1.56 (≈ 1.97 µM) | 3.13 (≈ 3.96 µM) | 1.56 (≈ 1.97 µM) | 50 (≈ 63.3 µM) | 12.5 (≈ 15.8 µM) | 0.39 (≈ 0.494 µM) | 1.56 (≈ 1.97 µM) | 12.5 (≈ 15.8 µM) | 3.13 (≈ 3.96 µM) | 1.56 (≈ 1.97 µM) | 3.13 (≈ 3.96 µM) | 0.78 (≈ 0.987 µM) | 6.25 (≈ 7.91 µM) | – | 0.78 (≈ 0.987 µM) | 3.13 (≈ 3.96 µM) | – |
| CC[C@H]1OC(=O)C[C@@H](O)[C@H](C)[C@@H](O[C@@H]2O[C@H](C)C(O)C(N(C)C)C2O)[C@@H](CCN(C)C)C[C@@H](C)C(=O)/C=C/C(C)=C/[C@@H]1CN(C)C (stereo partly drawn) [Compound C-1] | >100 | 6.25 (≈ 9.56 µM) | 12.5 (≈ 19.1 µM) | 100 (≈ 153 µM) | 50 (≈ 76.5 µM) | >100 | 100 (≈ 153 µM) | 6.25 (≈ 9.56 µM) | 6.25 (≈ 9.56 µM) | 50 (≈ 76.5 µM) | 25 (≈ 38.2 µM) | 50 (≈ 76.5 µM) | 12.5 (≈ 19.1 µM) | 3.13 (≈ 4.79 µM) | 50 (≈ 76.5 µM) | 50 (≈ 76.5 µM) | 6.25 (≈ 9.56 µM) | 100 (≈ 153 µM) | – |
| CC[C@H]1OC(=O)C[C@@H](O)[C@H](C)[C@@H](O[C@@H]2O[C@H](C)C(O)C(N(C)C)C2O)[C@@H](CCN2CCC(C)CC2)C[C@@H](C)C(=O)/C=C/C(C)=C/[C@@H]1CN1CCC(C)CC1 (stereo partly drawn) [MP-MT] | >100 | 0.39 (≈ 0.512 µM) | 0.39 (≈ 0.512 µM) | – | 1.56 (≈ 2.05 µM) | 50 (≈ 65.6 µM) | 12.5 (≈ 16.4 µM) | 0.39 (≈ 0.512 µM) | 3.13 (≈ 4.11 µM) | 12.5 (≈ 16.4 µM) | 3.13 (≈ 4.11 µM) | 1.56 (≈ 2.05 µM) | – | 0.78 (≈ 1.02 µM) | 6.25 (≈ 8.2 µM) | 3.13 (≈ 4.11 µM) | 0.39 (≈ 0.512 µM) | 25 (≈ 32.8 µM) | – |
| CCCCCCN(CCCCCC)CC[C@H]1C[C@@H](C)C(=O)/C=C/C(C)=C/[C@H](CN(CCCCCC)CCCCCC)[C@@H](CC)OC(=O)C[C@@H](O)[C@H](C)[C@H]1O[C@@H]1O[C@H](C)C(O)C(N(C)C)C1O (stereo partly drawn) [Compound C-2] | >100 | 50 (≈ 53.5 µM) | 50 (≈ 53.5 µM) | 6.25 (≈ 6.69 µM) | 6.25 (≈ 6.69 µM) | >100 | >100 | 12.5 (≈ 13.4 µM) | >100 | >100 | >100 | 3.13 (≈ 3.35 µM) | >100 | 6.25 (≈ 6.69 µM) | >100 | 100 (≈ 107 µM) | 12.5 (≈ 13.4 µM) | 12.5 (≈ 13.4 µM) | – |

Source: patent US6514946B1, “Macrolide antibiotics and treatment and prophylaxis of pasteurellosis using the same” (Zaidan Hojin Biseibutsu Kagaku Kenkyu Kai, priority 1999, dated 2003)
